Source: patent publication US12077503B2, “Substituted cyclic amides and their use as herbicides” (FMC CORPORATION, priority 2015, dated 2024)

How the values were obtained:
Assay type in all cases: in vivo
Kochia (Kochia scoparia) [1] = assay: Test A preemergence; conditions: Bassia scoparia, pre-emergence, 240 h, preemergence, read-out: Kochia plant response rating
How it was run: (§1)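 Preemergence soil spray on seeded pots or post-emergence spray on 1–2 leaf plants, in loam–sand blend. Greenhouse ~10 d. Visual rating 0–100 against untreated plants.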

[2] = tested on: barnyardgrass (Echinochloa crus-galli); assay: Test A preemergence; conditions: Echinochloa crus-galli, pre-emergence, 240 h, preemergence, read-out: Barnyardgrass plant response rating
How it was run: as §1

[3] = tested on: giant foxtail (Setaria faberii); assay: Test A preemergence; conditions: Setaria faberi, pre-emergence, 240 h, preemergence, read-out: Foxtail, Giant plant response rating
How it was run: as §1

[4] = tested on: pigweed (Amaranthus retroflexus); assay: Test A preemergence; conditions: Amaranthus retroflexus, pre-emergence, 240 h, preemergence, read-out: Pigweed plant response rating
[5] = tested on: ragweed (common ragweed, Ambrosia elatior); assay: Test A preemergence; conditions: Ambrosia artemisiifolia, pre-emergence, 240 h, preemergence, read-out: Ragweed plant response rating
How it was run: as §1

[6] = tested on: ryegrass, Italian (Italian ryegrass, Lolium multiflorum); assay: Test A preemergence; conditions: Lolium multiflorum, pre-emergence, 240 h, preemergence, read-out: Ryegrass, Italian plant response rating
How it was run: as §1

Kochia (Kochia scoparia) [7] = assay: Test A postemergence; conditions: Bassia scoparia, post-emergence, 240 h, postemergence, read-out: Kochia plant response rating
How it was run: as §1

[8] = tested on: barnyardgrass (Echinochloa crus-galli); assay: Test A postemergence; conditions: Echinochloa crus-galli, post-emergence, 240 h, postemergence, read-out: Barnyardgrass plant response rating
How it was run: as §1

[9] = tested on: blackgrass (Alopecurus myosuroides); assay: Test A postemergence; conditions: Alopecurus myosuroides, post-emergence, 240 h, postemergence, read-out: Blackgrass plant response rating
How it was run: as §1

corn (Zea mays) = assay: Test A postemergence; conditions: Zea mays, post-emergence, 240 h, postemergence, read-out: Corn plant response rating
How it was run: as §1

[10] = tested on: giant foxtail (Setaria faberii); assay: Test A postemergence; conditions: Setaria faberi, post-emergence, 240 h, postemergence, read-out: Foxtail, Giant plant response rating
How it was run: as §1

[11] = tested on: pigweed (Amaranthus retroflexus); assay: Test A postemergence; conditions: Amaranthus retroflexus, post-emergence, 240 h, postemergence, read-out: Pigweed plant response rating
How it was run: as §1

[12] = tested on: ragweed (common ragweed, Ambrosia elatior); assay: Test A postemergence; conditions: Ambrosia artemisiifolia, post-emergence, 240 h, postemergence, read-out: Ragweed plant response rating
How it was run: as §1

[13] = tested on: ryegrass, Italian (Italian ryegrass, Lolium multiflorum); assay: Test A postemergence; conditions: Lolium multiflorum, post-emergence, 240 h, postemergence, read-out: Ryegrass, Italian plant response rating
How it was run: as §1

[14] = tested on: wheat (Triticum aestivum); assay: Test A postemergence; conditions: Triticum aestivum, post-emergence, 240 h, postemergence, read-out: Wheat plant response rating
How it was run: as §1

[15] = 125 g ai/ha, 0 to 100 scale where 0 is no effect and 100 is complete control, approx. 10 d
[16] = 500 g ai/ha, visual injury rating about 10 d after treatment, 0 to 100 scale (0 no effect, 100 complete control)
[17] = 125 g ai/ha, visual injury on 0 to 100 scale (0 no effect, 100 complete control), approx. 10 d
[18] = 500 g ai/ha, 0 to 100 scale, 0 is no effect, 100 is complete control

Cc1ccc([C@H]2CNC(=O)[C@]2(Br)C(=O)Nc2cccc(F)c2F)cc1F (racemic) [Compound 1073] was tested, and the pest or weed control at 125 g/ha (Kochia (Kochia scoparia) [1]; [15]) was 0%, the pest or weed control at 500 g/ha (Kochia (Kochia scoparia) [1]; [16]) was 70% and the pest or weed control at 125 g/ha [2, 15] was 100%. The pest or weed control at 500 g/ha [2, 16] was 100%, the pest or weed control at 125 g/ha [3, 15] was 100% and the pest or weed control at 500 g/ha [3, 16] was 100%. It also gave a pest or weed control at 125 g/ha [4, 15] of 100%, a pest or weed control at 500 g/ha [4, 16] of 100% and a pest or weed control at 125 g/ha [5, 15] of 10%. For the same compound, the pest or weed control at 500 g/ha [5, 16] was 30%, the pest or weed control at 125 g/ha [6, 15] was 0% and the pest or weed control at 500 g/ha [6, 16] was 20%. The pest or weed control at 125 g/ha (Kochia (Kochia scoparia) [7]; [17]) was 0%, the pest or weed control at 500 g/ha (Kochia (Kochia scoparia) [7]; [18]) was 40% and the pest or weed control at 125 g/ha [8, 17] was 70%. For the same compound, the pest or weed control at 500 g/ha [8, 18] was 90%, the pest or weed control at 125 g/ha [9, 17] was 0% and the pest or weed control at 500 g/ha [9, 18] was 30%. For the same compound, the plant injury at 125 g/ha (corn (Zea mays); [17]) was 20%, the plant injury at 500 g/ha (corn (Zea mays); [18]) was 50% and the pest or weed control at 125 g/ha [10, 17] was 0%. It also gave a pest or weed control at 500 g/ha [10, 18] of 40%, a pest or weed control at 125 g/ha [11, 17] of 0% and a pest or weed control at 500 g/ha [11, 18] of 20%. The pest or weed control at 125 g/ha [12, 17] was 30%, the pest or weed control at 500 g/ha [12, 18] was 30% and the pest or weed control at 125 g/ha [13, 17] was 0%. It also gave a pest or weed control at 500 g/ha [13, 18] of 40%, a plant injury at 125 g/ha [14, 17] of 0% and a plant injury at 500 g/ha [14, 18] of 30%.
